Test results published in publication PMC8512631, “Structural Basis for PPARs Activation by The Dual PPARα/γ Agonist Sanguinarine: A Unique Mode of Ligand Recognition” (Molecules, 2021).
Changes are numbered by the printed parent chain. One block for each molecule: values may come before it. No end group written: not given here. *: point of attachment. Biotin = O=C1N[C@H]2[C@H](CS[C@H]2CCCCC(=O)*)N1

Key:
PPARα = target: T1, PPARα (Homo sapiens, UniProt Q07869); test: thermal shift assay of LBD with SRC1 peptide; GAL4 reporter at […]; type: binding
T1 construct: gene PPARA; LBD
T1 sequence (Q15788 2-1441 partner, one chain of several): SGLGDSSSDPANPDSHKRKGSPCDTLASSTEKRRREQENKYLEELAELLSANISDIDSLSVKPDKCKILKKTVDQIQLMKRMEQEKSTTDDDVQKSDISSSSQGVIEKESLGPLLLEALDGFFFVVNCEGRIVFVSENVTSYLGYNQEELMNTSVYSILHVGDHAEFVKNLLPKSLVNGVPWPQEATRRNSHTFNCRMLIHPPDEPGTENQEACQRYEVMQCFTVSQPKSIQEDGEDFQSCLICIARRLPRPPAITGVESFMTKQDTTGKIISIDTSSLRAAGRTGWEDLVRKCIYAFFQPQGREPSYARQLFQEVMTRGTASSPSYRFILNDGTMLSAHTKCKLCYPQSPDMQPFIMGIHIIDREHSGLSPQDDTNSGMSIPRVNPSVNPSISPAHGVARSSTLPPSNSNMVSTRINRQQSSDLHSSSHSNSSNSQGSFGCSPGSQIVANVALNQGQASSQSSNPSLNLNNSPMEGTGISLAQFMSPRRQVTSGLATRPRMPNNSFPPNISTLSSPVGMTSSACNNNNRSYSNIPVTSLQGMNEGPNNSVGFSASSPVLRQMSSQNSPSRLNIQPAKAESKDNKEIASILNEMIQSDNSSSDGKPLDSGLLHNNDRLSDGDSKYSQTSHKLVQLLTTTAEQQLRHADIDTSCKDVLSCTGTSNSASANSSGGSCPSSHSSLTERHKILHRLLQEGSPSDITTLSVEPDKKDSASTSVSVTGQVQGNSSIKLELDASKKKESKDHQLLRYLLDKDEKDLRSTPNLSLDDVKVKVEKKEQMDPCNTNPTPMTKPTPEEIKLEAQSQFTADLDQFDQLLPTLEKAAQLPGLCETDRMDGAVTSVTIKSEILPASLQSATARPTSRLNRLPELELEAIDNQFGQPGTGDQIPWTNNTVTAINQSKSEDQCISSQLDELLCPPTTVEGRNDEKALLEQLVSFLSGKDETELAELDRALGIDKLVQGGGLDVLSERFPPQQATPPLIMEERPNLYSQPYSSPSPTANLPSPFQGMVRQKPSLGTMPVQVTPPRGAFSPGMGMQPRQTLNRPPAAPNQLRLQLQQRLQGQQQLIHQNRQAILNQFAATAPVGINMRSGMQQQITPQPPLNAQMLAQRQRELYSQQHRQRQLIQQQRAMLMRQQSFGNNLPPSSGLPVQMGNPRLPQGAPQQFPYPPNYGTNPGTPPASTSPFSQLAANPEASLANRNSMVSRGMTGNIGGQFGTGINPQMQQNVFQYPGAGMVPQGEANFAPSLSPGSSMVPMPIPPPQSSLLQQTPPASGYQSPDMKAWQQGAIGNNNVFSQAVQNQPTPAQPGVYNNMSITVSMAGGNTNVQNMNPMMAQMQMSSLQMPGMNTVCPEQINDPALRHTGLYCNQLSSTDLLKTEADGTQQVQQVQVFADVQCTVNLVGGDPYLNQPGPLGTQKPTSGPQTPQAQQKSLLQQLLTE

PPARδ [1] = target: T2, PPARδ (Homo sapiens, UniProt Q03181, H244A); test: PPRE luciferase reporter in […] cells, […]; type: cell-based
T2 construct: gene PPARD; full-length
T2 sequence (Q03181 1-441 H244A): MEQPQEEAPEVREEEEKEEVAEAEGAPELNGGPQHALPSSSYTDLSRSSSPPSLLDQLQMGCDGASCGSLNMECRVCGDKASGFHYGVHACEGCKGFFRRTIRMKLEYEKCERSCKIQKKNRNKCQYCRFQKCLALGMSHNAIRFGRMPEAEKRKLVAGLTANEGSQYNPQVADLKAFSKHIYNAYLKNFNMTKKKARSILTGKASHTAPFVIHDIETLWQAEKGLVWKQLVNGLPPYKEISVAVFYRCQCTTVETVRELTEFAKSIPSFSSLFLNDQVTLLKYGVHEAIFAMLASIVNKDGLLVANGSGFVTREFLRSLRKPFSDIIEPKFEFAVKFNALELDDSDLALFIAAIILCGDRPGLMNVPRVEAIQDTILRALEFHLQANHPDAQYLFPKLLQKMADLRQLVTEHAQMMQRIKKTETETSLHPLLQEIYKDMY

PPARδ [2] = target: T3, PPARδ (Homo sapiens, UniProt Q03181, R248A); test: PPRE luciferase reporter in […] cells, […]; type: cell-based
T3 construct: gene PPARD; full-length
T3 sequence (Q03181 1-441 R248A): T2 sequence (Q03181 1-441 H244A) with A244H, R248A

[3] = target: T4, human PPARα ligand-binding domain (residues 196-468) (human, UniProt Q07869-1 196-468); test: AlphaScreen or HTRF; approximately 20–40 nM PPAR LBDs on nickel chelate acceptor beads, 20 nM biotinylated co-factor peptides on streptavidin donor beads; 50 mM MOPS, 50 mM NaF, 0.05 mM CHAPS, 0.1 mg/mL BSA, pH 7.4; in response to 1 μM sanguinarine; conditions: both partners purified
T4 construct: Expressed from pET24a; The methods describe only this PPARα-LBD construct; also called PPARα–LBD; source: E. coli BL21 (DE3), purified (Ni HiTrap, gel filtration Superdex 200); not shown: His6, N-terminal, kept
T4 sequence (looked up): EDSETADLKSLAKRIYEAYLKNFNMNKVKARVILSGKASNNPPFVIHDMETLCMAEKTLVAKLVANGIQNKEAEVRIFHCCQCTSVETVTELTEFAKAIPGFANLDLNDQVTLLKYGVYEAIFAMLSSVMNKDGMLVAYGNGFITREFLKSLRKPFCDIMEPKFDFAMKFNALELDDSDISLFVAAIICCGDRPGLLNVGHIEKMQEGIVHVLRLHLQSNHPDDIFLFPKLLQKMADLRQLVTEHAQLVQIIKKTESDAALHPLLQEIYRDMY

Molecule: Cc1nc(-c2ccc(C(F)(F)F)cc2)sc1C(=O)NCc1ccc(OC(C)(C)C(=O)O)cc1 [GW590735]
thermal shift assay of LBD with SRC1 peptide; GAL4 reporter at 1 μM (PPARα): thermal shift assay showed that SRC1 increased the thermal stability of sanguinarine–PPARα, compared with GW735–PPARα

Molecule: C[n+]1cc2c3c(ccc2c2ccc4cc5c(cc4c21)OCO5)OCO3 [sanguinarine]
PPRE luciferase reporter in 293T cells, 1 μM (PPARδ [1]): the H244A mutation enables PPARδ to respond to sanguinarine treatment | PPRE luciferase reporter in 293T cells, 1 μM (PPARδ [2]): sanguinarine activated the transcriptional activity of PPARδ–R248A mutation, in contrast to wild-type PPARδ

B1: biotinylated SRC1-2 co-activator LXXLL motif peptide (peptide)
peptide: Biotin-SPSSHSSLTERHKILHRLLQEGSP
binding result [3]: binds

The remaining lines, values ahead:

binding result [3]: binds
B2: biotinylated SRC2-3 co-activator LXXLL motif peptide (peptide)
peptide: Biotin-QEPVSPKKKENALLRYLLDKDDTKD

binding result [3]: binds
B3: biotinylated SRC3-3 co-activator LXXLL motif peptide (peptide)
peptide: Biotin-PDAASKHKQLSELLRGGSG
notes: the parent protein is in doubt
